This note sets out measurements from patent US9012489B2, “Phenyl-3-aza-bicyclo[3.1.0]hex-3-yl-methanones and the use thereof as medicament” (Boehringer Ingelheim International GmbH, priority 2011, dated 2015).

By IC50 is commonly meant the concentration that gives 50% inhibition.

In the assay the target is T1, GlyT1 transporter (Homo sapiens, UniProt P48067).
T1 construct: endogenously expressing the GlyT1 transporter; host or cells: SK-N-MC human neuroblastoma cells
T1 sequence (P48067 1-706): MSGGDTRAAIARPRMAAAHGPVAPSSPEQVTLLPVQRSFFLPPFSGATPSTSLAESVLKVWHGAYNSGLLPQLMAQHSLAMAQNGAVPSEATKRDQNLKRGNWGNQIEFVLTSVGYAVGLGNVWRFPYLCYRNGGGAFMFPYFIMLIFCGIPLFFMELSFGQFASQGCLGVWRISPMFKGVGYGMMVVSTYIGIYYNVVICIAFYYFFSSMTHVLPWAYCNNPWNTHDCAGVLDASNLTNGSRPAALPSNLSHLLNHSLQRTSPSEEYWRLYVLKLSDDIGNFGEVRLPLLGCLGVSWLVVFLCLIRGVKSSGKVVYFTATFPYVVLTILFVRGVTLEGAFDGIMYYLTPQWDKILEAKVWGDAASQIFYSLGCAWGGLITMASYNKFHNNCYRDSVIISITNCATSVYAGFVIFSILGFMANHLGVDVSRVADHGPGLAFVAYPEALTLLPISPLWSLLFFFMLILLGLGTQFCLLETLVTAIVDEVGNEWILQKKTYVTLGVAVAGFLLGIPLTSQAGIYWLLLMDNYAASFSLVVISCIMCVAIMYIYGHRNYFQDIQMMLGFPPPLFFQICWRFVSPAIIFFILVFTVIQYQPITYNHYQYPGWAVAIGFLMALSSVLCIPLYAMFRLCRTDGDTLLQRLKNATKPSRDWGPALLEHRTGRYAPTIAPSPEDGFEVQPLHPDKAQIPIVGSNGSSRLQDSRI
Description: GlyT1 assay: 3H-glycine uptake into SK-N-MC cells (Cytostar-T format). The assay is classed as cell-based. The note with it: glycine uptake in human SK-N-MC cells endogenously expressing GlyT1; 500 nM glycine, 1% DMSO, signal recorded over 60 min. The method, boiled down: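 Uptake slopes, measured over 60 min from the linear kinetic range, give IC50 from 8 compound concentrations, with 10 μM RG-1678 setting background. Substrate is 500 nM glycine (250 nM ³H, 250 nM unlabelled) in HBSS/5 mM alanine, 1% DMSO, after roughly 5-10 min compound preincubation. Cells: confluent SK-N-MC endogenously expressing human GlyT1.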
Compound `Cc1nc(C23CC2CN(C(=O)c2cc(S(C)(=O)=O)ccc2O[C@@H](C)C(F)(F)F)C3)no1` (mixture of isomers) [Example 6, [5-Methanesulfonyl-2-(2,2,2-trifluoro-1-methyl-ethoxy)-phenyl]-[1-(5-methyl-[1,2,4]oxadiazol-3-yl)-3-aza-bicyclo[3.1.0]hex-3-yl]-methanone] had an IC50 of 16.5 nM.
The figure for `Cc1noc(C23CC2CN(C(=O)c2cc(S(C)(=O)=O)ccc2O[C@H](C)C(F)(F)F)C3)n1` (mixture of isomers) [Example 35, [5-Methanesulfonyl-2-(2,2,2-trifluoro-1-methyl-ethoxy)-phenyl]-[1-(3-methyl-[1,2,4]oxadiazol-5-yl)-3-aza-bicyclo[3.1.0]hex-3-yl]-methanone] is 101 nM; for `CC(C)Oc1ccc(S(C)(=O)=O)cc1C(=O)N1CC2CC2(c2nc(C3(C(F)(F)F)CC3)no2)C1` (racemic) [Example 154, (2-Isopropoxy-5-methanesulfonyl-phenyl)-{1-[3-(1-trifluoromethyl-cyclopropyl)-[1,2,4]oxadiazol-5-yl]-3-aza-bicyclo[3.1.0]hex-3-yl}-methanone] it is 72 nM.
The figure for `C[C@H](Oc1ccc(S(C)(=O)=O)cc1C(=O)N1CC2CC2(c2nc(C(F)(F)F)co2)C1)C(F)(F)F` (single isomer, unassigned) [Example 136, [5-Methanesulfonyl-2-(2,2,2-trifluoro-1-methyl-ethoxy)-phenyl]-[1-(4-trifluoromethyl-oxazol-2-yl)-3-aza-bicyclo[3.1.0]hex-3-yl]-methanone] is 120 nM.
Regarding `C[C@@H](Oc1ccc(S(C)(=O)=O)cc1C(=O)N1CC2CC2(c2cc(C(F)(F)F)on2)C1)C(F)(F)F` (single isomer, unassigned) [Example 50, [5-Methanesulfonyl-2-(2,2,2-trifluoro-1-methyl-ethoxy)-phenyl]-[1-(5-trifluoromethyl-isoxazol-3-yl)-3-aza-bicyclo[3.1.0]hex-3-yl]-methanone], half-maximal inhibition (IC50) required 6 nM. This IC50 lies about 20-fold lower than the previous one.
`COC1(c2nc(C34CC3CN(C(=O)c3cc(S(C)(=O)=O)ccc3O[C@H](C)C(F)(F)F)C4)no2)CC1` (single isomer, unassigned) [Example 121, [5-Methanesulfonyl-2-(2,2,2-trifluoro-1-methyl-ethoxy)-phenyl]-{1-[5-(1-methoxy-cyclopropyl)-[1,2,4]oxadiazol-3-yl]-3-aza-bicyclo[3.1.0]hex-3-yl}-methanone]: the IC50 worked out at 349 nM.
`C[C@H](Oc1ccc(S(C)(=O)=O)cc1C(=O)N1CC2CC2(c2ncco2)C1)C(F)(F)F` (mixture of isomers) [Example 20, [5-Methanesulfonyl-2-(2,2,2-trifluoro-1-methyl-ethoxy)-phenyl]-(1-oxazol-2-yl-3-aza-bicyclo[3.1.0]hex-3-yl)-methanone]: the IC50 is 101 nM.
Under `C[C@H](Oc1ccc(S(C)(=O)=O)cc1C(=O)N1CC2CC2(c2ncc(C(F)(F)F)o2)C1)C(F)(F)F` (mixture of isomers) [Example 131, [5-Methanesulfonyl-2-(2,2,2-trifluoro-1-methyl-ethoxy)-phenyl]-[1-(5-trifluoromethyl-oxazol-2-yl)-3-aza-bicyclo[3.1.0]hex-3-yl]-methanone] stands 19 nM; under `CC(C)Oc1ccc(S(C)(=O)=O)cc1C(=O)N1CC2CC2(c2nc(C(F)(F)F)co2)C1` (single isomer, unassigned) [Example 111, (2-Isopropoxy-5-methanesulfonyl-phenyl)-[1-(4-trifluoromethyl-oxazol-2-yl)-3-aza-bicyclo[3.1.0]hex-3-yl]-methanone], 257 nM; under `C[C@H](Oc1ccc(-c2ncco2)cc1C(=O)N1CC2CC2(c2noc(C(F)(F)F)n2)C1)C(F)(F)F` (mixture of isomers) [Example 100, [5-Oxazol-2-yl-2-(2,2,2-trifluoro-1-methyl-ethoxy)-phenyl]-[1-(5-trifluoromethyl-[1,2,4]oxadiazol-3-yl)-3-aza-bicyclo[3.1.0]hex-3-yl]-methanone], 916 nM.
The figure for `C[C@@H](Oc1ccc(S(C)(=O)=O)cc1C(=O)N1CC2CC2(c2nnc(C(F)(F)F)o2)C1)C(F)(F)F` (single isomer, unassigned) [Example 124, [5-Methanesulfonyl-2-(2,2,2-trifluoro-1-methyl-ethoxy)-phenyl]-[1-(5-trifluoromethyl-[1,3,4]oxadiazol-2-yl)-3-aza-bicyclo[3.1.0]hex-3-yl]-methanone] is 503 nM; for `COC1(c2nc(C34CC3CN(C(=O)c3cc(S(C)(=O)=O)ccc3O[C@@H](C)C(F)(F)F)C4)no2)CC1` (single isomer, unassigned) [Example 117, [5-Methanesulfonyl-2-(2,2,2-trifluoro-1-methyl-ethoxy)-phenyl]-{1-[5-(1-methoxy-cyclopropyl)-[1,2,4]oxadiazol-3-yl]-3-aza-bicyclo[3.1.0]hex-3-yl}-methanone] it is 6 nM; for `C[C@H](Oc1ccc(S(C)(=O)=O)cc1C(=O)N1CC2CC2(c2cncc(C(F)(F)F)c2)C1)C(F)(F)F` (mixture of isomers) [Example 53, [5-Methanesulfonyl-2-(2,2,2-trifluoro-1-methyl-ethoxy)-phenyl]-[1-(5-trifluoromethyl-pyridin-3-yl)-3-aza-bicyclo[3.1.0]hex-3-yl]-methanone] it is 70 nM.
Under `Cc1cnc(C23CC2CN(C(=O)c2cc(S(C)(=O)=O)ccc2O[C@@H](C)C(F)(F)F)C3)o1` (single isomer, unassigned) [Example 23, [5-Methanesulfonyl-2-(2,2,2-trifluoro-1-methyl-ethoxy)-phenyl]-[1-(5-methyl-oxazol-2-yl)-3-aza-bicyclo[3.1.0]hex-3-yl]-methanone] stands 181 nM.
In the case of `C[C@@H](Oc1ccc(C#N)cc1C(=O)N1CC2CC2(c2noc(C(F)(F)F)n2)C1)C(F)(F)F` (mixture of isomers) [Example 91, 4-(2,2,2-Trifluoro-1-methyl-ethoxy)-3-[1-(5-trifluoromethyl-[1,2,4]oxadiazol-3-yl)-3-aza-bicyclo[3.1.0]hexane-3-carbonyl]-benzonitrile], it took 112 nM to reach half-maximal inhibition (IC50). This IC50 lies about 1.6-fold lower than the previous one.
Under `C[C@@H](Oc1ccc(S(C)(=O)=O)cc1C(=O)N1CC2CC2(c2noc(C3CC3(F)F)n2)C1)C(F)(F)F` (mixture of isomers) [Example 64, {1-[5-(2,2-Difluoro-cyclopropyl)-[1,2,4]oxadiazol-3-yl]-3-aza-bicyclo[3.1.0]hex-3-yl}-[5-methanesulfonyl-2-(2,2,2-trifluoro-1-methyl-ethoxy)-phenyl]-methanone] stands 4 nM; under `C[C@@H](Oc1ccc(S(C)(=O)=O)cc1C(=O)N1CC2CC2(c2cc(C(F)(F)F)on2)C1)C(F)(F)F` (single isomer, unassigned) [Example 51, [5-Methanesulfonyl-2-(2,2,2-trifluoro-1-methyl-ethoxy)-phenyl]-[1-(5-trifluoromethyl-isoxazol-3-yl)-3-aza-bicyclo[3.1.0]hex-3-yl]-methanone], 461 nM.
For `C[C@H](Oc1ccc(S(C)(=O)=O)cc1C(=O)N1CC2CC2(c2nc(C3(C(F)(F)F)CC3)no2)C1)C(F)(F)F` (mixture of isomers) [Example 155, [5-Methanesulfonyl-2-(2,2,2-trifluoro-1-methyl-ethoxy)-phenyl]-{1-[3-(1-trifluoromethyl-cyclopropyl)-[1,2,4]oxadiazol-5-yl]-3-aza-bicyclo[3.1.0]hex-3-yl}-methanone], half-maximal inhibition (IC50) was put at 36 nM. This IC50 lies about 13-fold lower than the previous one.
